Drawing on ChEMBL document CHEMBL5325393, “A mini-review on synthesis and antiviral activity of natural product oxetanocin A derivatives” (Bioorg Med Chem, 2022), this text covers inhibition for 2 compounds.

For experiment [1], the system named is CEM. Kind of experiment: Inhibition of HIV reverse transcriptase in human CEM cells at 400 uM relative to control. Type of experiment: cell-based. Conditions: Human immunodeficiency virus.
Experiment [2] has as its system Human immunodeficiency virus 1. Kind of experiment: Antiviral activity against HIV-1 infected in human CEM cells assessed as inhibition of cytopathogenicity at 400 uM relative to control. In kind it is functional. Conditions: Human immunodeficiency virus 1, CCRF-CEM.
Experiment [3] relates to Human immunodeficiency virus 1. Kind of experiment: Antiviral activity against HIV-1 III B infected in PBMC assessed as inhibition of viral replication at 100 microM relative to control. In kind it is functional. Particulars: Human immunodeficiency virus 1, III B.
The subject of experiment [4] is Human immunodeficiency virus 2. Kind of experiment: Antiviral activity against HIV-2 D194 infected in PBMC assessed as inhibition of viral replication at 45 microM relative to control. In kind it is functional. Particulars: Human immunodeficiency virus 2, D194, PBMC.

Take `Nc1nc2c(ncn2[C@H]2C[C@@](O)(CO)C2)c(=O)[nH]1`: the inhibition in experiment [1] was below 50%. In addition, the inhibition at 400 µM in experiment [2] is 59%.

In the case of `Nc1nc2c(ncn2[C@H]2C[C@@](F)(CO)C2)c(=O)[nH]1`, the inhibition at 100 µM in experiment [3] worked out at 30%. Besides, the inhibition at 45 µM in experiment [4] worked out at 50%.
